Test results taken from the NIST ThermoML archive (doi:10.1021/je900182h).
Where “and” joins values, the source holds several entries; their conditions need not be identical. Equal values may be shown once. ± gives the expanded uncertainty stated by the source.

Conditions: Crystal

[Br][Ga]([Br])[Br] [gallium bromide]
Conditions	vapor or sublimation pressure
300 K	7.08e-05 ± 2.1e-05 kPa
302.5 K	6.31e-05 ± 1.9e-05 kPa and 9.55e-05 ± 2.9e-05 kPa
303 K	4.79e-05 ± 1.4e-05 kPa
304 K	7.24e-05 ± 2.2e-05 kPa
304.5 K	8.51e-05 ± 2.6e-05 kPa
305 K	7.24e-05 ± 2.2e-05 kPa
306.5 K	9.77e-05 ± 2.9e-05 kPa
307 K	0.000141 ± 4.2e-05 kPa and 9.77e-05 ± 2.9e-05 kPa
307.5 K	0.000126 ± 3.8e-05 kPa and 9.55e-05 ± 2.9e-05 kPa
308 K	0.000126 ± 3.8e-05 kPa
309.5 K	0.000145 ± 4.4e-05 kPa
310 K	0.00017 ± 5.1e-05 kPa and 0.000123 ± 3.7e-05 kPa
310.5 K	0.000141 ± 4.2e-05 kPa
311 K	0.00024 ± 7.2e-05 kPa
311.7 K	0.000263 ± 7.9e-05 kPa
312 K	0.000214 ± 6.4e-05 kPa
312.5 K	0.00017 ± 5.1e-05 kPa
313 K	0.000257 ± 7.7e-05 kPa [middle of 4 runs]
313.5 K	0.000219 ± 6.6e-05 kPa
314 K	0.00038 ± 0.00011 kPa
314.5 K	0.000339 ± 0.0001 kPa and 0.000219 ± 6.6e-05 kPa
315 K	0.000339 ± 0.0001 kPa [middle of 4 runs]
315.5 K	0.000263 ± 7.9e-05 kPa
316 K	0.00038 ± 0.00011 kPa and 0.000245 ± 7.4e-05 kPa
316.5 K	0.000288 ± 8.6e-05 kPa
317 K	0.000331 ± 9.9e-05 kPa and 0.000295 ± 8.9e-05 kPa
317.5 K	0.000525 ± 0.00016 kPa and 0.000339 ± 0.0001 kPa
318 K	0.00055 ± 0.00016 kPa
318.5 K	0.000513 ± 0.00015 kPa and 0.000339 ± 0.0001 kPa
319.5 K	0.000589 ± 0.00018 kPa [middle of 4 runs]
320 K	0.000617 ± 0.00018 kPa and 0.000363 ± 0.00011 kPa
321 K	0.000851 ± 0.00026 kPa and 0.000759 ± 0.00023 kPa
321.5 K	0.000575 ± 0.00017 kPa
322 K	0.000759 ± 0.00023 kPa and 0.000912 ± 0.00027 kPa and 0.000525 ± 0.00016 kPa
322.5 K	0.000891 ± 0.00027 kPa and 0.000589 ± 0.00018 kPa
323 K	0.0011 ± 0.00033 kPa and 0.000977 ± 0.00029 kPa and 0.000661 ± 0.0002 kPa
323.5 K	0.000724 ± 0.00022 kPa
324 K	0.0011 ± 0.00033 kPa [middle of 4 runs]
324.5 K	0.000708 ± 0.00021 kPa
325 K	0.00141 ± 0.00042 kPa and 0.000724 ± 0.00022 kPa
325.5 K	0.000813 ± 0.00024 kPa
326 K	0.00141 ± 0.00042 kPa and 0.000832 ± 0.00025 kPa
326.5 K	0.000955 ± 0.00029 kPa and 0.000832 ± 0.00025 kPa
327 K	0.00117 ± 0.00035 kPa and 0.000977 ± 0.00029 kPa
327.5 K	0.00151 ± 0.00045 kPa [middle of 4 runs]
328 K	0.00191 ± 0.00057 kPa and 0.00105 ± 0.00032 kPa
328.5 K	0.00178 ± 0.00053 kPa and 0.000977 ± 0.00029 kPa
329.5 K	0.00148 ± 0.00044 kPa and 0.00123 ± 0.00037 kPa
330 K	0.00251 ± 0.00075 kPa and 0.00141 ± 0.00042 kPa and 0.00158 ± 0.00047 kPa
331 K	0.00263 ± 0.00079 kPa and 0.00257 ± 0.00077 kPa
331.5 K	0.00204 ± 0.00061 kPa
332 K	0.00324 ± 0.00097 kPa and 0.00191 ± 0.00057 kPa
332.5 K	0.00174 ± 0.00052 kPa
333 K	0.00214 ± 0.00064 kPa [middle of 4 runs]
333.5 K	0.00331 ± 0.00099 kPa and 0.00204 ± 0.00061 kPa
334 K	0.00398 ± 0.0012 kPa and 0.00234 ± 0.0007 kPa
335 K	0.00437 ± 0.0013 kPa and 0.00417 ± 0.0013 kPa and 0.00191 ± 0.00057 kPa
335.5 K	0.00263 ± 0.00079 kPa
336 K	0.00324 ± 0.00097 kPa [middle of 4 runs]
337 K	0.00339 ± 0.001 kPa
338 K	0.0055 ± 0.0016 kPa and 0.00363 ± 0.0011 kPa and 0.00309 ± 0.00093 kPa
339.5 K	0.00525 ± 0.0016 kPa
340 K	0.00407 ± 0.0012 kPa and 0.00427 ± 0.0013 kPa and 0.00437 ± 0.0013 kPa
340.5 K	0.00437 ± 0.0013 kPa
341 K	0.00759 ± 0.0023 kPa and 0.00427 ± 0.0013 kPa
342 K	0.00501 ± 0.0015 kPa
343 K	0.00759 ± 0.0023 kPa and 0.00589 ± 0.0018 kPa
343.5 K	0.00603 ± 0.0018 kPa
344 K	0.00617 ± 0.0019 kPa
344.5 K	0.00708 ± 0.0021 kPa
345 K	0.00661 ± 0.002 kPa and 0.00676 ± 0.002 kPa
346 K	0.00794 ± 0.0024 kPa [middle of 4 runs]
346.5 K	0.00871 ± 0.0026 kPa
347 K	0.0135 ± 0.0041 kPa
348 K	0.00871 ± 0.0026 kPa and 0.00955 ± 0.0029 kPa
349 K	0.01 ± 0.003 kPa and 0.012 ± 0.0036 kPa and 0.0105 ± 0.0032 kPa
350.5 K	0.0115 ± 0.0035 kPa
351 K	0.0186 ± 0.0056 kPa and 0.0117 ± 0.0035 kPa
352 K	0.0145 ± 0.0044 kPa
354.5 K	0.0174 ± 0.0052 kPa
357 K	0.0195 ± 0.0059 kPa
